Results from US6469055B2, “Compositions and methods for treatment of neurological disorders and neurodegenerative diseases” (Massachusetts Institute of Technology, priority 1996, dated 2002).
Entries after “also recorded” stand apart in the source; their conditions may differ.

Tests used:
APP holoprotein [1] = assay: APP holoprotein in cultured neurons; assay type: cell-based; details: DFP
From the text: (§1) Treatment of cultured astroyctes with DFU (A) or of cultured neurons with DFP (B) promotes APPs secretion and decreases the levels of amyloidogenic APP holoprotein in cultured.

secreted APP (APPs) [2] = assay: APPs secretion from cultured neurons; assay type: cell-based; details: DFP
From the text: as §1

secreted APP (APPs) [3] = assay: APPs secretion into the media of cultured cortical astrocytes, Western blot; assay type: cell-based, rat; details: DFU or DFP 10^-9-10^-3 M, 1 h, cultured astrocytes
Method: Astrocytes are isolated from cortices from postnatal rats. […] Media are changed twice weekly.
To detect secreted APP, culture media was collected after drug treatments and phenylmethylsulfonyl fluoride was added to a final concentration of 2 mM. The media samples were then applied to Sephadex PD-10 desalting columns (Pharmacia) and eluted with distilled water. Column eluates were frozen and dried by vacuum centrifugation. The lyophilized proteins were reconstituted in 25 μL water followed by 25 μL of 2X Laemmli gel loading buffer, and boiled for 5 min.
Assays of PI hydrolysis are conducted as previously reported. Also, measurements of APPs are conducted as previously reported.

APP holoprotein [4] = assay: Cell-associated APP (APP holoprotein), Western blot, cultured cortical astrocytes; details: DFU or DFP 10^-9-10^-3 M, 1 h, cultured astrocytes
Method: Astrocytes are isolated from cortices from postnatal rats. […] In brief, dissected cortices were dissociated by trypsinization and trituration through a flame-polished Pasteur pipette. Cells were plated onto poly-L-lysine coated 35- or 100 mm culture dishes at densities of about 10-25 cells/mm^2. […] Media are changed twice weekly. […] Pharmacological manipulations are performed in serum-free media on 7-14 DIV confluent astrocytes.
To detect cell-associated protein (APP or GFAP), astrocytes from 35 mm dishes are scraped in lysis buffer (60 mM Tris/HCl, 4% SDS, 20% glycerol, 1 mM dithiothreitol), ultrasonicated and boiled for 5 min. The total amount of cell protein per dish, estimated using the bicinchoninic acid assay, is not altered by pharmacological treatments. Bromphenol blue (0.1%) is added to each sample and equal amounts of protein (˜75 mg/lane) are loaded on 10% SDS-polyacrylamide gels.
The amount of media or cell protein loaded for sodium dodecyl sulfate-polyacrylamide gel electrophoresis (10-20% SDS PAGE; Bio-Rad) was normalized for the amount of protein per sample. […] After 2×10 min rinses in TBST, the membranes were incubated in TBST containing an appropriate antibody. Monoclonal antibodies 22C11 and GFAP (both from Boehringer-Mannheim) were used to detect the N-terminus of APP and glial fibrillary acidic protein respectively; antisera R37 and R98 (gifts of Dr. F. Kametani, Tokyo Institute of Psychiatry) were used to detected the C-terminus and KPI motifs of APP respectively; antiserum C8 (gift of Dr. D. Selkoe, Women's Hospital, Harvard Medical School, Cambridge, Mass.) was used to detect the C-terminus of APP.
After an overnight incubation, membranes were rinsed in TBST before being treated for 1h with a peroxidase-linked secondary antibody. After several rinses in TBST, protein bands were visualized on Kodak X-AR films by an enhanced chemiluminescence method (Amersham). Optical densities of the protein bands were quantitated by laser scanning densitometry (LKB, Bromma, Sweden), and normalized to the densities of those bands generated under control conditions.

APP holoprotein [5] = assay: Brain APP holoprotein in rats injected with p-chloroamphetamine (PCA) with or without aspirin; assay type: in vivo, rat; details: rats injected with PCA; striatum or hippocampus
From the text: Neuronal injury can stimulate prostaglandin production., and thereby stimulate APP overexpression. We injected rats with para-chloroamphetamine (PCA), a neurotoxin which causes a loss of serotoninergic terminals in the brain.

serotonin release = assay: Serotonin release in the striatum by microdialysis; assay type: in vivo, rat; details: rats, chronic treatment with PCA
APP mRNA = details: dibutyryl cAMP in serum-containing medium, rat glioma cells; cited from earlier work
[6] = 100-150 mg indomethacin, 6 months, mild or moderately impaired Alzheimer's disease patients; cited from earlier work

In the case of CC(C)OC1=C(c2ccc(S(C)(=O)=O)cc2)C(C)(C)OC1=O [DFP, 5,5-dimethyl-3-isopropyloxy-4-(4′-methylsulfonylphenyl)-2(5H)-furanone], the “levels of amyloidogenic APP holoprotein” value (APP holoprotein [1]) is reported as “decreases”, the APPs secretion (secreted APP (APPs) [2]) is reported as “promotes” and the “secretion of soluble APPs” value (secreted APP (APPs) [3]) is reported as “increases”. For the same compound, the “levels of cellular APP holoprotein” value (APP holoprotein [4]) was “decreases”.
With CC(N)Cc1ccc(Cl)cc1 (stereo not drawn) [PCA, para-chloroamphetamine] the “KPI-containing APP isoforms in brain tissue” value (APP holoprotein [5]) was “increased”, the “brain APP holoprotein levels” value (APP holoprotein [5]) was “increased; also recorded: significant increases” and the “serotonin release in the striatum” value (serotonin release) was “compromised”.
In the case of CCCC(=O)Nc1ncnc2c1ncn2[C@@H]1O[C@@H]2COP(=O)(O)O[C@H]2[C@H]1OC(=O)CCC [dibutyryl cAMP], the “APP mRNA” value (APP mRNA) is listed as “increased”.
For COc1ccc2c(c1)c(CC(=O)O)c(C)n2C(=O)c1ccc(Cl)cc1 [indomethacin], the “cognitive decline versus placebo, battery of cognitive tests” value [6] is given as “appeared to protect”.
